Experimental data as given in publication PMC3763546, “Structural insight into negative DNA supercoiling by DNA gyrase, a bacterial type 2A DNA topoisomerase” (Nucleic Acids Research, 2013).

Target: T1, GyrBA-fus (full-length T. thermophilus DNA gyrase GyrB-GyrA fusion) (Thermus thermophilus, UniProt Q5SHZ4+Q5SIL4)
T1 construct: full-length GyrB fused at its C-terminus to the N-terminus of full-length GyrA by a G-D-L linker; N-terminal His10 tag with PreScission site; E. coli BL21(DE3); dimer (A2B2 equivalent) of 320377 Da
Test: native ESI mass spectrometry
Type: binding
Details: 200 mM ammonium acetate pH 7.5; two ADPNP per fusion dimer; ATPase domain (GyrB) site; also in the holoenzyme cryo-EM sample (16.9 Å)

## Nc1ncnc2c1ncn2[C@@H]1O[C@H](COP(=O)(O)OP(=O)(O)NP(=O)(O)O)[C@@H](O)[C@H]1O [ADPNP]
  native ESI mass spectrometry: showing the addition of two ADPNP molecules per GyrBA-fus dimer
